This passage reports residual activity and IC50 results from ChEMBL document CHEMBL1152560, “Substituted 2-arylbenzothiazoles as kinase inhibitors: hit-to-lead optimization” (Bioorg Med Chem, 2009).

Experiment [1] concerns the target Calcium/calmodulin-dependent protein kinase type II subunit alpha (Homo sapiens) (UniProt Q9UQM7). Nature of the experiment: Residual activity of CAMK2A at 1 uM by microplate scintillation counting.
Experiment [2] deals with Serine/threonine-protein kinase B-raf (Homo sapiens) (UniProt P15056). Nature of the experiment: Residual activity of Wild type B-RAF at 1 uM by microplate scintillation counting.
The target in experiment [3] is T1, Serine/threonine-protein kinase TAO2 (Homo sapiens) (UniProt Q9UL54).
T1 sequence (whole entry): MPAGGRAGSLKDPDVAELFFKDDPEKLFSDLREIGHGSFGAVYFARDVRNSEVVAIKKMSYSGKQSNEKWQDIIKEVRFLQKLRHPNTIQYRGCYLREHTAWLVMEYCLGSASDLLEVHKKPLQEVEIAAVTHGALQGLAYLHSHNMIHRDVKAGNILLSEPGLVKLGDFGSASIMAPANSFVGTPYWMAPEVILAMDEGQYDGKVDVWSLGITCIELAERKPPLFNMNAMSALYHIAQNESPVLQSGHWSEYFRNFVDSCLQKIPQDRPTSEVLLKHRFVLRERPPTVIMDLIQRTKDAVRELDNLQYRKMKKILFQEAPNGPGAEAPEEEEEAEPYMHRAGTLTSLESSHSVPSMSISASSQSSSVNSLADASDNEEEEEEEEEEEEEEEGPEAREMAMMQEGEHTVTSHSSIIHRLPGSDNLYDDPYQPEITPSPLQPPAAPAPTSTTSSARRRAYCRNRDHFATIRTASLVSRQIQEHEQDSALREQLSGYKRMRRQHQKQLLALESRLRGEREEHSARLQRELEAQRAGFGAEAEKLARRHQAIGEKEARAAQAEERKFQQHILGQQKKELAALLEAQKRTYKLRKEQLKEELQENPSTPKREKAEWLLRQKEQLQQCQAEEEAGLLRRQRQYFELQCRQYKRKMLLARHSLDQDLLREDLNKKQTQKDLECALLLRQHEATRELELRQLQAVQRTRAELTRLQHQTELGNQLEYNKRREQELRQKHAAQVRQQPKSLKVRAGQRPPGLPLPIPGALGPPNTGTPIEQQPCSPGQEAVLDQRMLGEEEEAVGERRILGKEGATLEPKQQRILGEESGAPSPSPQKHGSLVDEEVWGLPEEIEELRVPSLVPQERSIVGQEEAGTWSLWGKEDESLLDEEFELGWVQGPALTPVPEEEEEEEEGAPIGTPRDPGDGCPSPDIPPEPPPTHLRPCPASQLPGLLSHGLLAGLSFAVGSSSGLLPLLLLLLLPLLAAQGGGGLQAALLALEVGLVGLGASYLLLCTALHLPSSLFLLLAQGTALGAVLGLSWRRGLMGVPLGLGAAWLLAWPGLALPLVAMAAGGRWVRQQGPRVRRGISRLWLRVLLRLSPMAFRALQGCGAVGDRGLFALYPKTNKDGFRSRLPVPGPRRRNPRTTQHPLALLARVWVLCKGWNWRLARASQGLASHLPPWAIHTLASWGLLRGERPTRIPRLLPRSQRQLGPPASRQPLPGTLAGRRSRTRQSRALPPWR
The experiment can be described thus: Residual activity of TAOK2 at 1 uM by microplate scintillation counting.

Experiment [4] deals with MAP/microtubule affinity-regulating kinase 3 (Homo sapiens) (UniProt P27448). Nature of the experiment: Residual activity of MARK3 at 10 uM by microplate scintillation counting.
Experiment [5] concerns the target Leukocyte tyrosine kinase receptor (Homo sapiens) (UniProt P29376). Nature of the experiment: Residual activity of LTK at 0.1 uM by microplate scintillation counting.
The target of experiment [6] is Proto-oncogene tyrosine-protein kinase Src (Homo sapiens) (UniProt P12931). The experiment can be described thus: Residual activity of SRC at 1 uM by microplate scintillation counting.
In experiment [7] the target is Macrophage-stimulating protein receptor (Homo sapiens) (UniProt Q04912). The experiment can be described thus: Residual activity of RON at 10 uM by microplate scintillation counting.
Experiment [8] concerns the target Fibroblast growth factor receptor 3 (Homo sapiens) (UniProt P22607). The experiment can be described thus: Residual activity of FGFR3 at 0.1 uM by microplate scintillation counting.
The target in experiment [9] is Epidermal growth factor receptor (Homo sapiens, UniProt P00533). The experiment can be described thus: Inhibition of wild type EGF-R by microplate scintillation counting.
Experiment [10] deals with Ribosomal protein S6 kinase alpha-5 (Homo sapiens) (UniProt O75582). The experiment can be described thus: Residual activity of RPS6KA5 at 1 uM by microplate scintillation counting.
In experiment [11] the target is T2, Ephrin type-A receptor 1 (Homo sapiens) (UniProt P21709).
T2 sequence (whole entry): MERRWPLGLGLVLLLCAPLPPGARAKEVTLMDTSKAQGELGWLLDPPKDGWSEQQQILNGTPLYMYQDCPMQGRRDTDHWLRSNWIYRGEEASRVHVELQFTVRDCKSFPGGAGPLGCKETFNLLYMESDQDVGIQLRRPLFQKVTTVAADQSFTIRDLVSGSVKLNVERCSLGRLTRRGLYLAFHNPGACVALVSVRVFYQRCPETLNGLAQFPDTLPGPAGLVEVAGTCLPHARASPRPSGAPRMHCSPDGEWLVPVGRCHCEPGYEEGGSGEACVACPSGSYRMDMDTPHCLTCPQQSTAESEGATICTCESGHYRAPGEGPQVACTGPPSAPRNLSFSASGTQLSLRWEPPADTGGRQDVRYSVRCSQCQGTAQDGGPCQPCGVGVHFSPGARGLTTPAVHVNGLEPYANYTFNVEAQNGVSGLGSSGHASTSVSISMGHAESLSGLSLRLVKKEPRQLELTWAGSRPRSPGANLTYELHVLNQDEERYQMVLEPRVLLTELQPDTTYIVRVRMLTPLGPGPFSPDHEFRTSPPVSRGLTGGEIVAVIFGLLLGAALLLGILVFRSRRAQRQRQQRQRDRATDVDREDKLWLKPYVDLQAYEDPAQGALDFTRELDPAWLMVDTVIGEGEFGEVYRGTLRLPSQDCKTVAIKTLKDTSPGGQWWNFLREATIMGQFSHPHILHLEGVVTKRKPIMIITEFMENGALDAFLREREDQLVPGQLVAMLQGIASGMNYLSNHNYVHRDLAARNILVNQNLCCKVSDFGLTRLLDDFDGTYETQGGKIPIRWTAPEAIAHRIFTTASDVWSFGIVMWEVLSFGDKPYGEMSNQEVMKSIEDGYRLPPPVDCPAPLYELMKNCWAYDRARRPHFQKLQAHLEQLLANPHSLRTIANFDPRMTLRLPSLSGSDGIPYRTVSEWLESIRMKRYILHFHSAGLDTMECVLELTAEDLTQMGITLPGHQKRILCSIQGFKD
Nature of the experiment: Residual activity of EPHA1 at 1 uM by microplate scintillation counting.

Experiment [12] deals with Glycogen synthase kinase-3 alpha (Homo sapiens) (UniProt P49840). The experiment can be described thus: Residual activity of GSK3alpha at 1 uM by microplate scintillation counting.
Glycogen synthase kinase-3 alpha (Homo sapiens), sequence (P49840 2-483 limits assumed): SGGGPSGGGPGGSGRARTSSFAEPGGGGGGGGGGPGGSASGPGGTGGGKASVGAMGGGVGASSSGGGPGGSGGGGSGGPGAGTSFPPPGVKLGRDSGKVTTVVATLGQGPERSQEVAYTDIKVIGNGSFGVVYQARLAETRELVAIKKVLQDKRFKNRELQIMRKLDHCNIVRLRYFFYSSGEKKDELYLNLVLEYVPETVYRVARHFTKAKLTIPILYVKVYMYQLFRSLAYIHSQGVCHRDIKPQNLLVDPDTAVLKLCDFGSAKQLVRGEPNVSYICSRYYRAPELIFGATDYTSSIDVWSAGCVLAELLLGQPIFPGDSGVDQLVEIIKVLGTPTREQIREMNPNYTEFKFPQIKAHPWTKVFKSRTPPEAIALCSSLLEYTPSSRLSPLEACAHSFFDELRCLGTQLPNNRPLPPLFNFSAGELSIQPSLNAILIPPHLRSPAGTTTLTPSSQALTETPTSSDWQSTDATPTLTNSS

Macrophage-stimulating protein receptor (Homo sapiens), sequence (Q04912 25-304 limits assumed): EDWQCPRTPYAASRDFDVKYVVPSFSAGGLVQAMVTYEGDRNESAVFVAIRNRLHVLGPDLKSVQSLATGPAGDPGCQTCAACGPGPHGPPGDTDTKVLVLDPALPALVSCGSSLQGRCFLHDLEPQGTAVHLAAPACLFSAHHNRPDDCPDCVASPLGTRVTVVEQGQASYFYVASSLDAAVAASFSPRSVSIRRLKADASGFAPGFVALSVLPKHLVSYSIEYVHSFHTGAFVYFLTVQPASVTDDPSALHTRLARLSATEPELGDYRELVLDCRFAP
Macrophage-stimulating protein receptor (Homo sapiens), sequence (Q04912 310-1400 limits assumed): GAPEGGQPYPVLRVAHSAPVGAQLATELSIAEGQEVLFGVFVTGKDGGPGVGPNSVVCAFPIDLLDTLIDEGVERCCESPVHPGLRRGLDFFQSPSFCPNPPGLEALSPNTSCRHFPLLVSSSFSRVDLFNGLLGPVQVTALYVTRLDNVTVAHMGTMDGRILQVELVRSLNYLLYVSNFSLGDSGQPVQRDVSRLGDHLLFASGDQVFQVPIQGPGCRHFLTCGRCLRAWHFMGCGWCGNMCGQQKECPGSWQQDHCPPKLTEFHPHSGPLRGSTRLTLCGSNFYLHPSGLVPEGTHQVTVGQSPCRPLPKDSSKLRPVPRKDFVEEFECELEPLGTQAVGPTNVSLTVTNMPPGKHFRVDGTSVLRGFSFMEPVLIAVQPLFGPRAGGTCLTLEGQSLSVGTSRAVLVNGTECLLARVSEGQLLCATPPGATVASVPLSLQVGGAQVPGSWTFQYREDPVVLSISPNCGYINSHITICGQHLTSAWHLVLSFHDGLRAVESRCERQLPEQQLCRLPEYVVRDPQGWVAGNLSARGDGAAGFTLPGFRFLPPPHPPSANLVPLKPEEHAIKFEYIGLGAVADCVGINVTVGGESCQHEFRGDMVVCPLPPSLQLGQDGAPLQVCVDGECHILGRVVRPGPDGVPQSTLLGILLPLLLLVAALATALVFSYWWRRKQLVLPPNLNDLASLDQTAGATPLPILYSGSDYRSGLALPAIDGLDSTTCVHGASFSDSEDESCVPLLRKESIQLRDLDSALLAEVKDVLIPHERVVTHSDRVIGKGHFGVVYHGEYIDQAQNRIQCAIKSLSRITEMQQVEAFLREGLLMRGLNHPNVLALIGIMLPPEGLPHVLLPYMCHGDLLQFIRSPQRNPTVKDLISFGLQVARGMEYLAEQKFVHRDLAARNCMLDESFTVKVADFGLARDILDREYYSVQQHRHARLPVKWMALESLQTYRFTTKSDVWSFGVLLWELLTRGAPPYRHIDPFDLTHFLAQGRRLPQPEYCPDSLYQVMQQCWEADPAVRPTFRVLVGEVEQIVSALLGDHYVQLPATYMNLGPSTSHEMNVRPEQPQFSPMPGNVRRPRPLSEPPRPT
Epidermal growth factor receptor, sequence (P00533 whole entry): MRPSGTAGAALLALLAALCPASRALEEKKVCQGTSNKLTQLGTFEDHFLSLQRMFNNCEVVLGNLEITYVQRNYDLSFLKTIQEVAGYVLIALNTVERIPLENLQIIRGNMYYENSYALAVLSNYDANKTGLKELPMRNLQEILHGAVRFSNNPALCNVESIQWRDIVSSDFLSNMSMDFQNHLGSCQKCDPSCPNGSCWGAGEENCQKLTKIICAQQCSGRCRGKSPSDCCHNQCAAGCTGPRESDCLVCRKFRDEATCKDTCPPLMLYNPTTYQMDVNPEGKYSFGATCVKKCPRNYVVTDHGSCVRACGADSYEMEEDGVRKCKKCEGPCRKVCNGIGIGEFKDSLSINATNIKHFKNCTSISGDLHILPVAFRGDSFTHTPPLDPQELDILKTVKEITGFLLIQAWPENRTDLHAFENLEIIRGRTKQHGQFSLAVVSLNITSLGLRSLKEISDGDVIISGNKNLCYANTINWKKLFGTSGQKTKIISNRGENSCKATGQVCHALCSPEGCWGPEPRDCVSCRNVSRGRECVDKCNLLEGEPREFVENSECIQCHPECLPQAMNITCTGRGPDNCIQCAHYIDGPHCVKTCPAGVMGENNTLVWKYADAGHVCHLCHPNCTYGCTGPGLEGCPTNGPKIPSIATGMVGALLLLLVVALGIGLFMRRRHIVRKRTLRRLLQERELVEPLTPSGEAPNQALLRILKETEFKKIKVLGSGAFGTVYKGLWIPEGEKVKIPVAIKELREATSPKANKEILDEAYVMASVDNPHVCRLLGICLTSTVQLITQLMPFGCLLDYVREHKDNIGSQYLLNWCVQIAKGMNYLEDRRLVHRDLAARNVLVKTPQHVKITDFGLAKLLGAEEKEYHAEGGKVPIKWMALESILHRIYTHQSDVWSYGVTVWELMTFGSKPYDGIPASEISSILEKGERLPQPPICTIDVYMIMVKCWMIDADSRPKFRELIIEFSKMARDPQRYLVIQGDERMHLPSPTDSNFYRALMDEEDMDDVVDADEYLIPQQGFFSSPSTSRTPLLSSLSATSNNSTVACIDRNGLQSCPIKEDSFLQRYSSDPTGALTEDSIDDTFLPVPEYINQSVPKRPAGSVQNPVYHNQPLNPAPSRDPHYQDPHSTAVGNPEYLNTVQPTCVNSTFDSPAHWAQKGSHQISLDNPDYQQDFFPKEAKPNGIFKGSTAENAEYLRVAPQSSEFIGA
Fibroblast growth factor receptor 3 (Homo sapiens), sequence (P22607 23-806 limits assumed): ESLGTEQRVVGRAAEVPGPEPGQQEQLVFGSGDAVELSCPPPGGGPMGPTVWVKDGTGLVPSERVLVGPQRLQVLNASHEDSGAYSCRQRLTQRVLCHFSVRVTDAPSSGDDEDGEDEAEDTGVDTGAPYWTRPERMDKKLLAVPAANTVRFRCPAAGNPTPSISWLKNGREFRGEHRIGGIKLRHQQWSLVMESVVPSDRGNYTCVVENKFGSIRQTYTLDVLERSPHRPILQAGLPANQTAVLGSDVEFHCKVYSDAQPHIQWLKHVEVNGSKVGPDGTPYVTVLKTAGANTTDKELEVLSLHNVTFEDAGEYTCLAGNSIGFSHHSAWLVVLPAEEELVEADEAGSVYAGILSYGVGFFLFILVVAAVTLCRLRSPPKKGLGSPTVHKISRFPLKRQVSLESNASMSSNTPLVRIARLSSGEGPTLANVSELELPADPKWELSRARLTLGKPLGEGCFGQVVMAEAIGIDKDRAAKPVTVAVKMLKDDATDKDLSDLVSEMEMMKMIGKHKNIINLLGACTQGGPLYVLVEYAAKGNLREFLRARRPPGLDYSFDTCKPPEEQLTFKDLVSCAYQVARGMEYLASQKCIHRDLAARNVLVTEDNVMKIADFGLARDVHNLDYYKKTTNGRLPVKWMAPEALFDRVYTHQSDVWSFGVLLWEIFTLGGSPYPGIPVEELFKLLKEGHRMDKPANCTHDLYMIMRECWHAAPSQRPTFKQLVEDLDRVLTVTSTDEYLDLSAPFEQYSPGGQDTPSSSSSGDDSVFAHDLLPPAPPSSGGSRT
Ribosomal protein S6 kinase alpha-5 (Homo sapiens), sequence (O75582 whole entry, looked up): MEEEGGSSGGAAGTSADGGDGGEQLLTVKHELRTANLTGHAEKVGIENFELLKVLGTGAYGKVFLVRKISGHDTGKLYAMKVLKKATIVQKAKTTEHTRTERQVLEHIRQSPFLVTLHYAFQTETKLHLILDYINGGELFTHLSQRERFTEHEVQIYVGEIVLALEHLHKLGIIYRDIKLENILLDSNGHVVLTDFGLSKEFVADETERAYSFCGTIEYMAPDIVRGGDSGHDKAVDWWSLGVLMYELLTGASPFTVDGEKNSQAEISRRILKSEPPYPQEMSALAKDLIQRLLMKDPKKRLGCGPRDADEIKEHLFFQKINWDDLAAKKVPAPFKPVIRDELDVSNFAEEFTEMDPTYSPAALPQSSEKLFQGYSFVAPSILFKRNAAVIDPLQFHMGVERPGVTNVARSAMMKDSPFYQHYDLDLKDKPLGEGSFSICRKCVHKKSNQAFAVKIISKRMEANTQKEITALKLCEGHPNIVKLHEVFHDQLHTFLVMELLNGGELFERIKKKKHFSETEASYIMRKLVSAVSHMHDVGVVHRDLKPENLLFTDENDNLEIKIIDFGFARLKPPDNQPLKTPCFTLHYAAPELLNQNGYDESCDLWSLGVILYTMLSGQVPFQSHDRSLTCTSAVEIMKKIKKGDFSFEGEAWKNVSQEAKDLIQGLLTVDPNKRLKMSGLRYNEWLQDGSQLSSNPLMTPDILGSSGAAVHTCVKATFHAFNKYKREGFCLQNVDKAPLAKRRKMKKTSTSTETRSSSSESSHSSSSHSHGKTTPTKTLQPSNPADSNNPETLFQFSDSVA

On to `COc1cc2c(Oc3ccc(-c4nc5ccccc5s4)cc3)ncnc2cc1OCCCN1CCCC1`, for which the residual activity in experiment [1] was 81%; in experiment [2], 77%; in [3], 99%; in experiment [4], 108%; in [5] it was 99%; in [6], 95%. For the same compound, the residual activity came to 53% in experiment [7]; 104% in experiment [8]; 87% in experiment [10]; 147% in experiment [11]; 83% in [12]. The compound also registered an IC50 in [9] greater than 10 µM.
Regarding `COc1cc2c(Oc3ccc(-c4nc5ccccc5s4)cc3F)ncnc2cc1OCCCN1CCN(C)CC1`, the residual activity in experiment [1] was found to be 83%; in experiment [2], 83%; in experiment [3], 101%; in [4] it was 104%; in experiment [5], 101%; in experiment [6], 89%. Besides, the residual activity in experiment [7] was 55%; in experiment [8] it was 100%; in experiment [10], 71%; in [11], 145%; in [12], 96%. Besides, in experiment [9], the IC50 is greater than 10 µM.
Take `COc1cc2c(Oc3ccc(-c4nc5ccccc5s4)cc3)ncnc2cc1OCCCN1CCN(C)CC1`: the residual activity in experiment [1] turned out to be 69%; in experiment [2] it was 79%; in [3], 97%; in experiment [4] it was 107%; in experiment [5], 82%; in experiment [6], 87%. In addition, the residual activity in experiment [7] was found to be 76%; in experiment [8], 95%; in experiment [10], 81%; in experiment [11], 140%; in [12], 87%. This compound returned an IC50 in experiment [9] greater than 10 µM.

As a reminder, the IC50 is the point on the concentration scale where inhibition reaches its midpoint. The low end stands for greater potency, the high end for weaker potency.
